PubChem BioAssay AID1259407 (Chemical Carcinogenesis Research Information System (CCRIS), 2018)
Activity calls are given as the source filed them. How the calls were made is not given here.

Test system: CCRIS mutagenicity, Ames/micronucleus/aberration tests
Assay: CCRIS mutagenicity studies
[1] = Test System: AMES SALMONELLA TYPHIMURIUM, Strain/Indicator: TA98, Metabolic Activation: NONE, Method: STANDARD PLATE
[2] = Test System: AMES SALMONELLA TYPHIMURIUM, Strain/Indicator: TA100, Metabolic Activation: NONE, Method: STANDARD PLATE
[3] = Test System: AMES SALMONELLA TYPHIMURIUM, Strain/Indicator: TA1535, Metabolic Activation: NONE, Method: STANDARD PLATE
[4] = Test System: AMES SALMONELLA TYPHIMURIUM, Strain/Indicator: TA1537, Metabolic Activation: NONE, Method: STANDARD PLATE
[5] = Test System: AMES SALMONELLA TYPHIMURIUM, Strain/Indicator: TA98, Metabolic Activation: NONE, Method: PREINCUBATION
[6] = Test System: AMES SALMONELLA TYPHIMURIUM, Strain/Indicator: TA100, Metabolic Activation: NONE, Method: PREINCUBATION
[7] = Test System: AMES SALMONELLA TYPHIMURIUM, Strain/Indicator: TA98, Metabolic Activation: RAT, LIVER, S-9, AROCLOR 1254, Method: PREINCUBATION
[8] = Test System: AMES SALMONELLA TYPHIMURIUM, Strain/Indicator: TA100, Metabolic Activation: RAT, LIVER, S-9, AROCLOR 1254, Method: PREINCUBATION

Q: Which results are given for `CCO[Si](C)(C)OCC`?
A: mutagenic call [1]: inactive; negative; mutagenic call (Test System: AMES SALMONELLA TYPHIMURIUM, Strain/Indicator: TA98, Metabolic Activation: RAT LIVER S-9, AROCLOR 1254, Method: STANDARD PLATE): inactive; negative; mutagenic call [2]: inactive; negative; mutagenic call (Test System: AMES SALMONELLA TYPHIMURIUM, Strain/Indicator: TA100, Metabolic Activation: RAT LIVER S-9, AROCLOR 1254, Method: STANDARD PLATE): inactive; negative; mutagenic call [3]: inactive; negative; mutagenic call (Test System: AMES SALMONELLA TYPHIMURIUM, Strain/Indicator: TA1535, Metabolic Activation: RAT LIVER S-9, AROCLOR 1254, Method: STANDARD PLATE): inactive; negative; mutagenic call [4]: inactive; negative; mutagenic call (Test System: AMES SALMONELLA TYPHIMURIUM, Strain/Indicator: TA1537, Metabolic Activation: RAT LIVER S-9, AROCLOR 1254, Method: STANDARD PLATE): inactive; negative; mutagenic call (Test System: AMES SALMONELLA TYPHIMURIUM, Strain/Indicator: TA1538, Metabolic Activation: NONE, Method: STANDARD PLATE): inactive; negative; mutagenic call (Test System: AMES SALMONELLA TYPHIMURIUM, Strain/Indicator: TA1538, Metabolic Activation: RAT LIVER S-9, AROCLOR 1254, Method: STANDARD PLATE): inactive; negative; mutagenic call (Test System: E. COLI, Strain/Indicator: P3078 POLA, Metabolic Activation: NONE, Method: SPOT TEST): inactive; negative; mutagenic call (Test System: E. COLI, Strain/Indicator: P3078 POLA, Metabolic Activation: RAT LIVER S-9, AROCLOR 1254, Method: SPOT TEST): inactive; negative; mutagenic call (Test System: E. COLI, Strain/Indicator: W3110, Metabolic Activation: NONE, Method: SPOT TEST): inactive; negative; mutagenic call (Test System: E. COLI, Strain/Indicator: W3110, Metabolic Activation: RAT LIVER S-9, AROCLOR 1254, Method: SPOT TEST): inactive; negative; mutagenic call (Test System: MOUSE LYMPHOMA, Strain/Indicator: L5178Y (TK+/TK-), Metabolic Activation: NONE, Method: SUSPENSION/PLATE): inactive; negative; mutagenic call (Test System: MOUSE LYMPHOMA, Strain/Indicator: L5178Y (TK+/TK-), Metabolic Activation: RAT, LIVER, S-9, Method: SUSPENSION/PLATE): inactive; negative

Q: What does the source list for `C=COc1ccccc1`?
A: mutagenic call [1]: inactive; negative; mutagenic call (Test System: AMES SALMONELLA TYPHIMURIUM, Strain/Indicator: TA98, Metabolic Activation: RAT LIVER MICROSOMES, Method: STANDARD PLATE): inactive; negative; mutagenic call [3]: inactive; negative; mutagenic call (Test System: AMES SALMONELLA TYPHIMURIUM, Strain/Indicator: TA1535, Metabolic Activation: RAT LIVER MICROSOMES, Method: STANDARD PLATE): active; positive

Q: What does the source list for `COc1cc2c(c3oc(=O)c4c(c13)CC[C@@H]4O)[C@@H]1C=CO[C@@H]1O2`?
A: mutagenic call (Test System: AMES SALMONELLA TYPHIMURIUM, Strain/Indicator: TA98, Metabolic Activation: RAT, LIVER, S-9, PHENOBARBITAL, Method: STANDARD PLATE): active; positive; mutagenic call (Test System: AMES SALMONELLA TYPHIMURIUM, Strain/Indicator: TA98, Metabolic Activation: RAT, LIVER, S-9, Method: STANDARD PLATE): active; positive; mutagenic call [2]: inactive; negative; mutagenic call (Test System: AMES SALMONELLA TYPHIMURIUM, Strain/Indicator: TA100, Metabolic Activation: RAT, LIVER, S-9, AROCLOR 1254, Method: STANDARD PLATE): active; positive; mutagenic call (Test System: UDS HUMAN FIBROBLASTS, Strain/Indicator: THY INCORP (NON-S-PHASE), Metabolic Activation: MOUSE, LIVER, S-9, Method: AUTORADIOGRAPHY): active; positive; mutagenic call (Test System: UDS HUMAN FIBROBLASTS, Strain/Indicator: THY INCORP (NON-S-PHASE), Metabolic Activation: RAT, LIVER, S-9, Method: AUTORADIOGRAPHY): active; positive

Q: How did the mutagenic call [5] turn out when `Cc1ccc(C)c([N+](=O)[O-])c1` was run?
A: inactive; negative

Q: And the mutagenic call (Test System: AMES SALMONELLA TYPHIMURIUM, Strain/Indicator: TA98, Metabolic Activation: RAT, LIVER, S-9, KANECHLOR 500, Method: PREINCUBATION)?
A: inactive; negative

Q: What about the mutagenic call [6] of the same molecule?
A: inactive; negative

Q: What about the mutagenic call (Test System: AMES SALMONELLA TYPHIMURIUM, Strain/Indicator: TA100, Metabolic Activation: RAT, LIVER, S-9, KANECHLOR 500, Method: PREINCUBATION) of the same molecule?
A: active; positive

Q: Which results are given for `CCC(C)Nc1snc2ccccc12` (configuration not stated)?
A: mutagenic call [1]: inactive; negative; mutagenic call (Test System: AMES SALMONELLA TYPHIMURIUM, Strain/Indicator: TA98, Metabolic Activation: S-9, Method: STANDARD PLATE): inactive; negative; mutagenic call [2]: inactive; negative; mutagenic call (Test System: AMES SALMONELLA TYPHIMURIUM, Strain/Indicator: TA100, Metabolic Activation: S-9, Method: STANDARD PLATE): inactive; negative; mutagenic call [3]: inactive; negative; mutagenic call (Test System: AMES SALMONELLA TYPHIMURIUM, Strain/Indicator: TA1535, Metabolic Activation: S-9, Method: STANDARD PLATE): inactive; negative; mutagenic call [4]: inactive; negative; mutagenic call (Test System: AMES SALMONELLA TYPHIMURIUM, Strain/Indicator: TA1537, Metabolic Activation: S-9, Method: STANDARD PLATE): inactive; negative

Q: Which results are given for `O=[N+]([O-])c1ccc2c3ccccc3c3ccc([N+](=O)[O-])c4ccc1c2c43`?
A: mutagenic call (End Point: In vitro micronucleus, Test System: CHL/IU cells, Metabolic Activation: None): active; positive; mutagenic call (End Point: In vitro micronucleus, Test System: HepG2 cells, Metabolic Activation: None): active; positive; mutagenic call (Test System: Chinese hamster lung cells/HPRT locus, Strain/Indicator: CHL/IU, Metabolic Activation: None): active; positive; mutagenic call (Test System: Human liver cells/HPRT locus, Strain/Indicator: HepG2, Metabolic Activation: None): active; positive

Q: What does the source list for `O=Nc1cc2c3ccccc3ccc2c2ccccc12`?
A: mutagenic call [5]: active; positive; mutagenic call [7]: active; positive; mutagenic call [6]: active; positive; mutagenic call [8]: active; positive; mutagenic call (Test System: CHINESE HAMSTER OVARY, Strain/Indicator: CHO-K1-BH4 (HGPRT)/6-THIOGUANINE, Metabolic Activation: NONE, Method: STANDARD PLATE): active; positive; mutagenic call (Test System: CHINESE HAMSTER OVARY, Strain/Indicator: CHO-UV5 (HGPRT)/6-THIOGUANINE, Metabolic Activation: NONE, Method: STANDARD PLATE): active; positive

Q: What does the source list for `CC(=O)NNC(=O)c1ccccn1`?
A: mutagenic call (Test System: AMES SALMONELLA TYPHIMURIUM, Strain/Indicator: TA98, Metabolic Activation: HAMSTER, LIVER, S-9, AROCLOR 1254, Method: PREINCUBATION): inactive; negative; mutagenic call [5]: inactive; negative; mutagenic call [7]: inactive; negative; mutagenic call (Test System: AMES SALMONELLA TYPHIMURIUM, Strain/Indicator: TA100, Metabolic Activation: HAMSTER, LIVER, S-9, AROCLOR 1254, Method: PREINCUBATION): inactive; negative; mutagenic call [6]: inactive; negative; mutagenic call [8]: inactive; negative; mutagenic call (Test System: AMES SALMONELLA TYPHIMURIUM, Strain/Indicator: TA1535, Metabolic Activation: HAMSTER, LIVER, S-9, AROCLOR 1254, Method: PREINCUBATION): inactive; negative; mutagenic call (Test System: AMES SALMONELLA TYPHIMURIUM, Strain/Indicator: TA1535, Metabolic Activation: NONE, Method: PREINCUBATION): inactive; negative; mutagenic call (Test System: AMES SALMONELLA TYPHIMURIUM, Strain/Indicator: TA1535, Metabolic Activation: RAT, LIVER, S-9, AROCLOR 1254, Method: PREINCUBATION): inactive; negative; mutagenic call (Test System: AMES SALMONELLA TYPHIMURIUM, Strain/Indicator: TA1537, Metabolic Activation: HAMSTER, LIVER, S-9, AROCLOR 1254, Method: PREINCUBATION): inactive; negative; mutagenic call (Test System: AMES SALMONELLA TYPHIMURIUM, Strain/Indicator: TA1537, Metabolic Activation: NONE, Method: PREINCUBATION): inactive; negative; mutagenic call (Test System: AMES SALMONELLA TYPHIMURIUM, Strain/Indicator: TA1537, Metabolic Activation: RAT, LIVER, S-9, AROCLOR 1254, Method: PREINCUBATION): inactive; negative

Q: Which mutagenic call (Test System: AMES SALMONELLA TYPHIMURIUM, Strain/Indicator: TA100, Metabolic Activation: RAT, INTACT HEPATOCYTES, AROCLOR 1254, Method: PREINCUBATION) does the source give for `Cc1cccc2cc3ccc4cccc5ccc(c12)c3c45` here?
A: inactive; negative

Q: And the mutagenic call (Test System: AMES SALMONELLA TYPHIMURIUM, Strain/Indicator: TA100, Metabolic Activation: RAT, NADPH-FORTIFIED HOMOGENIZED HEPATOCYTES, AROCLOR 1254, Method: PREINCUBATION)?
A: active; positive
